Measurements reported in ChEMBL document CHEMBL1201862, “PubChem BioAssay data set” (2004).
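Cultured in 96-well plates, cells were exposed to test compound for 48 hours across five concentrations. GI50 = concentration required for 50% inhibition of growth.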 Activity calls are given as the source filed them. No stated cut-off is given here; in the data, active = GI50 up to about 1.1 µM and inactive = higher.

What was measured:
Experiment in all cases: DTP human tumour cell line panel, 48 h
786-0 = system: 786-0
COLO 205 = system: COLO 205
EKVX = system: EKVX
HCT-116 = system: HCT-116
HOP-92 = system: HOP-92
Hs-578T = system: Hs-578T
LOX IMVI = system: LOX IMVI
MDA-MB-231 = system: MDA-MB-231
Malme-3M = system: Malme-3M
NCI-H522 = system: NCI-H522
OVCAR-8 = system: OVCAR-8
PC-3 = system: PC-3
RXF 393 = system: RXF 393
SF-268 = system: SF-268
SF-295 = system: SF-295
SNB-75 = system: SNB-75
T47D = system: T47D
TK-10 = system: TK-10
U-251 = system: U-251
UO-31 = system: UO-31

C[C@]12CC[C@H](O)C=C1CC[C@@H]1[C@@H]2CC[C@]2(C)C(=N/O)/C(=C/c3ccncc3)C[C@@H]12
GI50 (786-0): 12.9 µM (inactive)
GI50 (COLO 205): 11.7 µM (inactive)
GI50 (EKVX): 16.4 µM (inactive)
GI50 (HCT-116): 5 µM (inactive)
GI50 (HOP-92): 7.48 µM (inactive)
GI50 (Hs-578T): 19.4 µM (inactive)
GI50 (LOX IMVI): 11.5 µM (inactive)
GI50 (MDA-MB-231): 11.1 µM (inactive)
GI50 (Malme-3M): 17.5 µM (inactive)
GI50 (NCI-H522): 9.35 µM (inactive)
GI50 (OVCAR-8): 16 µM (inactive)
GI50 (PC-3): 2.65 µM (inactive)
GI50 (RXF 393): 5.87 µM (inactive)
GI50 (SF-268): 15.2 µM (inactive)
GI50 (SF-295): 12.2 µM (inactive)
GI50 (SNB-75): 14.4 µM (inactive)
GI50 (T47D): 5.38 µM (inactive)
GI50 (TK-10): 12.4 µM (inactive)
GI50 (U-251): 6.64 µM (inactive)
GI50 (UO-31): 3.68 µM (inactive)

O=P(O)(O)CC1OC(CO)C(O)C1O (stereo not given)
GI50 (786-0): > 100 µM (inactive)
GI50 (COLO 205): > 100 µM (inactive)
GI50 (EKVX): > 100 µM (inactive)
GI50 (HCT-116): > 100 µM (inactive)
GI50 (HOP-92): > 100 µM (inactive)
GI50 (Hs-578T): > 100 µM (inactive)
GI50 (LOX IMVI): > 100 µM (inactive)
GI50 (MDA-MB-231): > 100 µM (inactive)
GI50 (Malme-3M): > 100 µM (inactive)
GI50 (NCI-H522): > 100 µM (inactive)
GI50 (OVCAR-8): > 100 µM (inactive)
GI50 (PC-3): > 100 µM (inactive)
GI50 (RXF 393): > 100 µM (inactive)
GI50 (SF-268): > 100 µM (inactive)
GI50 (SF-295): > 100 µM (inactive)
GI50 (SNB-75): > 100 µM (inactive)
GI50 (T47D): > 100 µM (inactive)
GI50 (TK-10): > 100 µM (inactive)
GI50 (U-251): > 100 µM (inactive)
GI50 (UO-31): > 100 µM (inactive)

CC(=N/NC(=S)N1CCCCC1)/C(=N\NC(=S)N1CCCCC1)c1ccccc1
GI50 (786-0): 1.99 µM (inactive)
GI50 (COLO 205): 2.22 µM (inactive)
GI50 (EKVX): 1.89 µM (inactive)
GI50 (HCT-116): 2.53 µM (inactive)
GI50 (HOP-92): 1.9 µM (inactive)
GI50 (Hs-578T): 1.84 µM (inactive)
GI50 (LOX IMVI): 3.43 µM (inactive)
GI50 (MDA-MB-231): 2.7 µM (inactive)
GI50 (Malme-3M): 2.13 µM (inactive)
GI50 (NCI-H522): 2.23 µM (inactive)
GI50 (OVCAR-8): 2.64 µM (inactive)
GI50 (PC-3): 1.64 µM (inactive)
GI50 (RXF 393): 1.35 µM (inactive)
GI50 (SF-268): 1.79 µM (inactive)
GI50 (SF-295): 1.87 µM (inactive)
GI50 (SNB-75): 1.91 µM (inactive)
GI50 (T47D): 2.12 µM (inactive)
GI50 (TK-10): 1.74 µM (inactive)
GI50 (U-251): 1.68 µM (inactive)
GI50 (UO-31): 1.76 µM (inactive)

COc1cc(C2c3cc4c(cc3OC(NC3CCCCC3)C2C)OCO4)cc(OC)c1OC (stereo not given)
GI50 (786-0): 0.493 µM (active)
GI50 (COLO 205): 0.241 µM (active)
GI50 (EKVX): 4.47 µM (inactive)
GI50 (HCT-116): 0.47 µM (active)
GI50 (HOP-92): 2.65 µM (inactive)
GI50 (Hs-578T): 0.377 µM (active)
GI50 (LOX IMVI): 0.617 µM (active)
GI50 (MDA-MB-231): 0.393 µM (active)
GI50 (Malme-3M): 0.321 µM (active)
GI50 (NCI-H522): 0.359 µM (active)
GI50 (OVCAR-8): 0.845 µM (active)
GI50 (PC-3): 0.382 µM (active)
GI50 (RXF 393): 0.258 µM (active)
GI50 (SF-268): 0.701 µM (active)
GI50 (SF-295): 0.203 µM (active)
GI50 (SNB-75): 0.223 µM (active)
GI50 (T47D): 0.339 µM (active)
GI50 (TK-10): 16.9 µM (inactive)
GI50 (U-251): 0.467 µM (active)
GI50 (UO-31): 0.515 µM (active)

CC1CC2(OC2C)C(=O)OC2CCN(C)C/C=C(/COC(=O)C1(C)O)C2=O (stereo not given)
GI50 (786-0): > 100 µM (inactive)
GI50 (COLO 205): > 100 µM (inactive)
GI50 (EKVX): > 100 µM (inactive)
GI50 (HCT-116): > 100 µM (inactive)
GI50 (HOP-92): > 100 µM (inactive)
GI50 (Hs-578T): > 100 µM (inactive)
GI50 (LOX IMVI): > 100 µM (inactive)
GI50 (MDA-MB-231): > 100 µM (inactive)
GI50 (Malme-3M): > 100 µM (inactive)
GI50 (NCI-H522): > 100 µM (inactive)
GI50 (OVCAR-8): > 100 µM (inactive)
GI50 (PC-3): > 100 µM (inactive)
GI50 (RXF 393): > 100 µM (inactive)
GI50 (SF-268): > 100 µM (inactive)
GI50 (SF-295): > 100 µM (inactive)
GI50 (SNB-75): > 100 µM (inactive)
GI50 (T47D): > 100 µM (inactive)
GI50 (TK-10): > 100 µM (inactive)
GI50 (U-251): > 100 µM (inactive)
GI50 (UO-31): > 100 µM (inactive)
